Reference: ChEMBL document CHEMBL5291721, “A preclinical secondary pharmacology resource illuminates target-adverse drug reaction associations of marketed drugs” (Nat Commun, 2023)

Key:
[1] = target: T1, Neuropeptide Y receptor type 1 (Homo sapiens, UniProt P25929)
T1 sequence (P25929 whole entry): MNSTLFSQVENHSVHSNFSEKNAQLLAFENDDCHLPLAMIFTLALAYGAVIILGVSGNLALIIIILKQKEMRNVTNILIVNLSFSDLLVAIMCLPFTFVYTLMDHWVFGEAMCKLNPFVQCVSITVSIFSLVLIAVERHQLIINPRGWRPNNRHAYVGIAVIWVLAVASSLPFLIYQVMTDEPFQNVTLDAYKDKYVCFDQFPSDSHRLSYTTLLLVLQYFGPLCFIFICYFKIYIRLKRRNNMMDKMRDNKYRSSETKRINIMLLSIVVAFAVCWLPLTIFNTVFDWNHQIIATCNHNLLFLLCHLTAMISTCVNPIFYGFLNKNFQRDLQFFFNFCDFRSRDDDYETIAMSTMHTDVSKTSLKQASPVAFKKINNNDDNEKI

[2] = target: T2, Alpha-1A adrenergic receptor (Homo sapiens, UniProt P35348); format: functional, cell-based
T2 sequence (P35348 whole entry): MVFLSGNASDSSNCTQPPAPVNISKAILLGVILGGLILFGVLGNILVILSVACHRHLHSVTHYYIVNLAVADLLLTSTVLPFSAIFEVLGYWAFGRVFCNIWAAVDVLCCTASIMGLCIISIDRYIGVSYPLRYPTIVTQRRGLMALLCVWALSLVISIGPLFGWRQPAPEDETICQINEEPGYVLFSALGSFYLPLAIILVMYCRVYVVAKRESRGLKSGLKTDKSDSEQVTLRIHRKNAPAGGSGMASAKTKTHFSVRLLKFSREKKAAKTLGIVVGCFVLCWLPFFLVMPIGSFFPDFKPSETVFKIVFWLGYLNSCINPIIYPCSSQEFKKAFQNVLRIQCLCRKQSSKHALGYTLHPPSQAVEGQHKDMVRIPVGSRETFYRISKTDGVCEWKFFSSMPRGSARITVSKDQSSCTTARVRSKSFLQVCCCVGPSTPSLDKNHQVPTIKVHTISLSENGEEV

Cannabinoid receptor 1 = Cannabinoid receptor 1 (Homo sapiens, UniProt P21554); format: functional, cell-based
Chain of Cannabinoid receptor 1 (P21554 whole entry): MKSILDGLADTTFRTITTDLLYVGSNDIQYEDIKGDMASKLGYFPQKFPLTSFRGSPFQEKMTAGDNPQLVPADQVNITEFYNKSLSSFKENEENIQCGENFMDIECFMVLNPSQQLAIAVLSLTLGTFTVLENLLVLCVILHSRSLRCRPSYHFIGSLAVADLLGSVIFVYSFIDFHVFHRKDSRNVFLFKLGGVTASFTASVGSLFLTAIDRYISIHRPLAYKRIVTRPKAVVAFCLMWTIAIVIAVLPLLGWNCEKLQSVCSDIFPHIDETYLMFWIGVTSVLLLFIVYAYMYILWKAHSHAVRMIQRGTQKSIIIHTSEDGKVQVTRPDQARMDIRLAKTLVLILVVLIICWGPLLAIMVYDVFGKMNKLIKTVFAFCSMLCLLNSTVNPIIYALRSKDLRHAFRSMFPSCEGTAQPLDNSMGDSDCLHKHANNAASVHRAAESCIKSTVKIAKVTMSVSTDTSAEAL

Estrogen receptor = target: T3, Estrogen receptor (Homo sapiens, UniProt P03372)
T3 sequence (P03372 whole entry): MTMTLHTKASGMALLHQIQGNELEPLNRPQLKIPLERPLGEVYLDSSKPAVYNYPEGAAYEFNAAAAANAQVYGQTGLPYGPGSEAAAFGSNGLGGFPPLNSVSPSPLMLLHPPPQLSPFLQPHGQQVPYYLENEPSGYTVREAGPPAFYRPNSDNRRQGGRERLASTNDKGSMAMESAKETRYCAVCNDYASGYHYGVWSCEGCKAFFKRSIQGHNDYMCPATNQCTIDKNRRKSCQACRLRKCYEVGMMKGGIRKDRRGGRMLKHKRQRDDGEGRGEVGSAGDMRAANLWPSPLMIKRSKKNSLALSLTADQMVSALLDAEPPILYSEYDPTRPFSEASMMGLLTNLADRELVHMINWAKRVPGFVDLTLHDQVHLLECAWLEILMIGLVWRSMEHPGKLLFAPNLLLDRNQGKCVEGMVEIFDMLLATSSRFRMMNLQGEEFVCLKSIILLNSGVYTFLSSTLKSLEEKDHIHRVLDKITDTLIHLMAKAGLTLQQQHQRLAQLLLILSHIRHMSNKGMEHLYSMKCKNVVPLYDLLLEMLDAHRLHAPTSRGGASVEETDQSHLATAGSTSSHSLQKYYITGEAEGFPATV

[3] = target: cGMP-inhibited 3',5'-cyclic phosphodiesterase 3A (Homo sapiens, UniProt Q14432); format: functional
Chain of cGMP-inhibited 3',5'-cyclic phosphodiesterase 3A (Q14432 whole entry): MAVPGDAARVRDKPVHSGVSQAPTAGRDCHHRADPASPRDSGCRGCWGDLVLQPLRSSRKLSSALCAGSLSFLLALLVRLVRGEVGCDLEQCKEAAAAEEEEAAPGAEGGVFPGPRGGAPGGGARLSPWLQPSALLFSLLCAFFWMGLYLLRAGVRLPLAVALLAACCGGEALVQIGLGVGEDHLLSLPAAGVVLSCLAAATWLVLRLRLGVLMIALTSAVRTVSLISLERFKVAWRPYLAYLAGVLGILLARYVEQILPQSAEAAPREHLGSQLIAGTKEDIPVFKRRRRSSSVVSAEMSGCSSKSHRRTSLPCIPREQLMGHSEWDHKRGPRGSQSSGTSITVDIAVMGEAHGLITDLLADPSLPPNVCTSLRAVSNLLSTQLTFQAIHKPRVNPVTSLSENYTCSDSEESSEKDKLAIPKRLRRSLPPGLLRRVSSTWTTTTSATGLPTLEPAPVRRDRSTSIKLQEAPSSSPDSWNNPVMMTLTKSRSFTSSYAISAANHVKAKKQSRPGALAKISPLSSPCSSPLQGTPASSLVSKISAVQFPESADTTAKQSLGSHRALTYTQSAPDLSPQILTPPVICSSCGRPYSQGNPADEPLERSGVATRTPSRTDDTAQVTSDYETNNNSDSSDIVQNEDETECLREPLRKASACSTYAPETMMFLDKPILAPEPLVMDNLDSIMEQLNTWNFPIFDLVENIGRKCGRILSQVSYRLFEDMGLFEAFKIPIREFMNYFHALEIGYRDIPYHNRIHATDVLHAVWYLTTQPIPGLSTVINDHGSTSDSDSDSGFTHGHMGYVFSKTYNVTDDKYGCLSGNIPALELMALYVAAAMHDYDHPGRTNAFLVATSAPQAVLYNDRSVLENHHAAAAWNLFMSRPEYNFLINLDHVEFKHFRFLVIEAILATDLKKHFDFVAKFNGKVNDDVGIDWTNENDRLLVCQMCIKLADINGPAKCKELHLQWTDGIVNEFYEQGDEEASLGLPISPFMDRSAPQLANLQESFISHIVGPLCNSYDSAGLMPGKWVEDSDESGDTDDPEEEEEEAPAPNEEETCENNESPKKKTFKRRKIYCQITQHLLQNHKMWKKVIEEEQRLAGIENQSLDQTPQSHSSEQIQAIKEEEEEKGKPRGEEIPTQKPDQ

[4] = target: 5-hydroxytryptamine receptor 2B (Homo sapiens, UniProt P41595); format: functional, cell-based
Chain of 5-hydroxytryptamine receptor 2B (P41595 whole entry): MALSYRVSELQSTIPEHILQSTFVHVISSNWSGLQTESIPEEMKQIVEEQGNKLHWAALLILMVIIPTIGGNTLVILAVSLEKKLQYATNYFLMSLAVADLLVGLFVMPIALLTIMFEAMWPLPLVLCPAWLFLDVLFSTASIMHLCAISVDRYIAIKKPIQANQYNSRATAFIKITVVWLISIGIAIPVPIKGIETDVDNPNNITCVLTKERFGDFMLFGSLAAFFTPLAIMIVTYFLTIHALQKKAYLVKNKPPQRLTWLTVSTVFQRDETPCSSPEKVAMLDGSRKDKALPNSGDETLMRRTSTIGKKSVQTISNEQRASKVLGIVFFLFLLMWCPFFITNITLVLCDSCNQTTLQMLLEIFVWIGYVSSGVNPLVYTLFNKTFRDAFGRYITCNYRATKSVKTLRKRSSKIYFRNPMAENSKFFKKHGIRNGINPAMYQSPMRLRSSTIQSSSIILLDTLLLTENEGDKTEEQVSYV

Adenosine receptor A3 = target: T4, Adenosine receptor A3 (Homo sapiens, UniProt P0DMS8)
T4 sequence (P0DMS8 whole entry): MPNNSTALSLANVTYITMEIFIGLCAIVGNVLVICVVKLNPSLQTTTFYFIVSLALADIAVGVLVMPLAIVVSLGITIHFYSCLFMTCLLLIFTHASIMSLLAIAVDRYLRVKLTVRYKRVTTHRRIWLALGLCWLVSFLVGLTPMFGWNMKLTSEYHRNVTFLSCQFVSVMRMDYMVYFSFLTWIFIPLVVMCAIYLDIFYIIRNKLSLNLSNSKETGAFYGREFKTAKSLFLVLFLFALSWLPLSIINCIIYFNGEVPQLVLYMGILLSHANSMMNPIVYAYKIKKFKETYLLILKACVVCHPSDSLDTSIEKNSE

Glucocorticoid receptor = target: T5, Glucocorticoid receptor (Homo sapiens, UniProt P04150)
T5 sequence (P04150 whole entry): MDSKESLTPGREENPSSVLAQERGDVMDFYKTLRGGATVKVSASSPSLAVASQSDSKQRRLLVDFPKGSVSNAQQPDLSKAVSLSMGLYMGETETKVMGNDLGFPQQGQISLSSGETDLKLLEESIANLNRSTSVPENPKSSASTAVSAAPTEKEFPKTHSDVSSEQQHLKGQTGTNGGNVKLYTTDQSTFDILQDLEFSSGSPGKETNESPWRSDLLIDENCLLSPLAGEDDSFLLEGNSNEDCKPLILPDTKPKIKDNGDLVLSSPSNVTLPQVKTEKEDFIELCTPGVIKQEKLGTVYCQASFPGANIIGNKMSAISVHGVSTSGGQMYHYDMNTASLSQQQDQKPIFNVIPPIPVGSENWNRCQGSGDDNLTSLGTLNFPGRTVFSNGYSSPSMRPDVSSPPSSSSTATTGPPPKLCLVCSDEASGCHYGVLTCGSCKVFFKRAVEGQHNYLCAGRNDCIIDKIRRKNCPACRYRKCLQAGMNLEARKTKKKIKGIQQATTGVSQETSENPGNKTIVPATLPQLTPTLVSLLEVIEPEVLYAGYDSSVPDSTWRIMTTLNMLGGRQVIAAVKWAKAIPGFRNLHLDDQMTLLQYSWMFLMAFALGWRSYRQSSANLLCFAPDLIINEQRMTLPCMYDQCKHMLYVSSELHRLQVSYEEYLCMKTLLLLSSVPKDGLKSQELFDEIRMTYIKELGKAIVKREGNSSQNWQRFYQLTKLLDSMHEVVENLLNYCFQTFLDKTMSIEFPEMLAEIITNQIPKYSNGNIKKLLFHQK

[5] = target: Muscarinic acetylcholine receptor M3 (Homo sapiens, UniProt P20309)
Chain of Muscarinic acetylcholine receptor M3 (P20309 whole entry): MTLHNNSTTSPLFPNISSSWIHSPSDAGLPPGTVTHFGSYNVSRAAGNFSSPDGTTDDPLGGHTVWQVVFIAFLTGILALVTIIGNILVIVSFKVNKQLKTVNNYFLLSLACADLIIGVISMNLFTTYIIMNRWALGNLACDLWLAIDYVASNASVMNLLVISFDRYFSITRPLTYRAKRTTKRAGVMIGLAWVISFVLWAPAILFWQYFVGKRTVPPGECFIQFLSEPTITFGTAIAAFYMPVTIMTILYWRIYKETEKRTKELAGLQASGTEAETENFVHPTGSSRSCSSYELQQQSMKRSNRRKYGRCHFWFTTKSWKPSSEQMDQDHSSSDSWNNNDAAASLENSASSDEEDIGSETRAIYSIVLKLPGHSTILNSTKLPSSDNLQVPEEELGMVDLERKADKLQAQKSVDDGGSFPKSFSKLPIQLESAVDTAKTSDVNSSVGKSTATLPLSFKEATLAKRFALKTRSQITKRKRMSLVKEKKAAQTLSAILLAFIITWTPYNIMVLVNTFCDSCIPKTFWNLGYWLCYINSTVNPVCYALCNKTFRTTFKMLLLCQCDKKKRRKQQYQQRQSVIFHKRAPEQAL
Further: assay procedure not described here.

Row | Compound | AC50 [1] [µM] | AC50 [2] [µM] | AC50 (Cannabinoid receptor 1) [µM] | AC50 (Estrogen receptor) [µM] | AC50 [3] [µM] | AC50 [4] [µM] | AC50 (Adenosine receptor A3) [µM] | AC50 (Glucocorticoid receptor) [µM] | AC50 [5] [µM]
1 | CO[C@H]1C[C@@H]2CC[C@@H](C)[C@@](O)(O2)C(=O)C(=O)N2CCCC[C@H]2C(=O)O[C@H]([C@H](C)C[C@@H]2CC[C@@H](O)[C@H](OC)C2)CC(=O)[C@H](C)/C=C(\C)[C@@H](O)[C@@H](OC)C(=O)[C@H](C)C[C@H](C)/C=C/C=C/C=C/1C [SIROLIMUS] | > 30 | > 30 | > 30 | > 30 | > 30 | > 30 | 26.4 | – | –
2 | CC[C@H]1[C@@H](O)[C@@H]2[C@H](CC[C@]3(C)[C@@H]([C@H](C)CCC(=O)O)CC[C@@H]23)[C@@]2(C)CC[C@@H](O)C[C@@H]12 [OBETICHOLIC ACID] | > 30 | 6.3 | > 30 | > 30 | > 30 | > 30 | > 30 | > 30 | > 30
3 | CC(C)Nc1ncccn1 [ISAXONINE] | – | – | – | > 30 | > 30 | > 30 | > 30 | – | –
4 | CN(C)CCN1C(=O)c2ccccc2N(C)c2ccccc21 [DIBENZEPIN] | – | – | – | > 30 | > 30 | > 30 | > 30 | – | –
5 | C=C[C@H]1C[N@@]2CC[C@H]1C[C@H]2[C@H](O)c1ccnc2ccc(OC)cc12 [QUININE] | – | – | – | > 30 | > 30 | > 30 | > 30 | – | –
6 | Cc1cn([C@H]2C[C@H](N=[N+]=[N-])[C@@H](CO)O2)c(=O)[nH]c1=O [ZIDOVUDINE] | > 30 | > 30 | > 30 | > 30 | > 30 | > 30 | > 30 | > 30 | –
7 | N[C@@H](C(=O)N[C@@H]1C(=O)N2C(C(=O)O)=C(Cl)CC[C@H]12)c1ccccc1 [LORACARBEF ANHYDROUS] | – | – | – | > 30 | > 30 | > 30 | > 30 | – | –
8 | COCc1c(C(C)C)nc(C(C)C)c(/C=C/[C@@H](O)C[C@@H](O)CC(=O)O)c1-c1ccc(F)cc1 [CERIVASTATIN] | – | – | – | 23.3 | > 30 | > 30 | > 30 | – | –
9 | O=C(OCC(O)CO)c1ccccc1Nc1ccnc2cc(Cl)ccc12 (centres undefined) [GLAFENINE] | – | > 30 | > 30 | > 30 | > 30 | > 30 | 1.4 | – | > 30
10 | CN(C)CC(c1ccc(O)cc1)C1(O)CCCCC1 (centres undefined) [DESVENLAFAXINE] | – | – | – | > 30 | > 30 | > 30 | > 30 | – | –
11 | CC(C)(C)NC[C@H](O)COc1ccccc1C1CCCC1 [PENBUTOLOL] | – | – | – | > 30 | > 30 | > 30 | > 30 | – | –
